{
  "source": "patent US20250163050A1",
  "about": "“CRYSTALLINE (+)-TETRABENAZINE” (Foresee Pharmaceuticals Co., Ltd., priority 2022, published 2025)",
  "key": {"[1]": {"conditions": "compared with TBZ; cited from earlier work"}, "dopamine receptors": {"system": "dopamine receptors", "conditions": "cited from earlier work"}, "[2]": {"assay": "Solubility in PBS with 0.2% (w/v) tween 20 at 37° C.", "format": "physicochemical", "conditions": "for solubility: PBS with 0.2% (w/v) tween 20, 37° C., overnight", "protocol": "20 mg Form 2 crystalline (+)-TBZ was dispersed into 1 ml PBS with 0.2% (w/v) tween 20. Then, this excessively saturated suspension was stirred overnight at 37° C. 0.8 ml of former suspension was transferred into 1.5 mL Eppendorf centrifuge tube. The undissolved solid was spun down using bench-top centrifuge at the rotation of 14000 rpm for 5 min.\n• Flow rate: 0.3 mL/min • Column temp: 55° C. • Injection volume: 2 uL • Detection: 220 nm • Run time: 10 min • (+)-TBZ retention time: ˜3.5 min"}, "[3]": {"assay": "Metabolism in rat liver microsome (RLM)", "format": "in vitro ADME", "protocol": "Rat liver microsome (RLM) study was conducted to investigate the generation of pharmaceutically active metabolites of Form 2 (+)-TBZ and TBZ racemate."}, "[4]": {"conditions": "in vivo; cited from earlier work"}, "[5]": {"conditions": "patients, dose escalation; cited from earlier work"}, "[6]": {"assay": "Powder flow property, angle of repose (USP 1174)", "format": "physicochemical", "description": "The present application enables the production of crystalline (+)-TBZ in various particle size ranges and crystal morphology (e.g. rod-shaped crystals and more symmetric crystals). As API powder/crystalline flowability can be critical in the manufacture of a drug product, flow property of crystalline (+)-TBZ in the present application was investigated."}},
  "note": "Like-named read-outs stand apart in the source and are kept apart here.",
  "data": [
    {"smiles": "COc1cc2c(cc1OC)[C@H]1C[C@@H](O)[C@H](CC(C)C)CN1CC2", "note": "[(2R,3R,11bR)-DHTBZ]", "values": [
      {"measurement": "sedative effects", "setting": "[1]", "result": "lack the unwanted sedative effects"},
      {"measurement": "binding at dopamine receptors", "setting": "dopamine receptors", "result": "negligible binding"}
    ]},
    {"smiles": "COc1cc2c(cc1OC)[C@H]1C[C@H](O)[C@H](CC(C)C)CN1CC2", "note": "[(2S,3R,11bR)-DHTBZ]", "values": [
      {"measurement": "sedative effects", "setting": "[1]", "result": "lack the unwanted sedative effects"},
      {"measurement": "binding at dopamine receptors", "setting": "dopamine receptors", "result": "negligible binding"}
    ]},
    {"smiles": "COc1cc2c(cc1OC)C1CC(=O)C(CC(C)C)CN1CC2", "note": "(racemic) [TBZ racemate, 1,3,4,6,7,11b-hexahydro-9,10-dimethoxy-3-(2-methylpropyl)-2H-benzo[a]quinolizin-2-one]", "values": [
      {"measurement": "less solubility compared to Form 2 crystalline (+)-TBZ", "setting": "[2]; PBS with 0.2% w/v Tween 20", "result": "about 40%"},
      {"measurement": "solubility", "setting": "[2]; aqueous with cosolvent or surfactant or cyclodextrin, thermodynamic from solid, read-out: Solubility", "result": 36.4, "unit": "µg/mL"},
      {"measurement": "half-life", "setting": "[3]; liver microsomes, rat liver microsome, read-out: Half-life", "result": 10.6, "unit": "min"},
      {"measurement": "bioavailability", "setting": "[4]", "result": "low and variable"},
      {"measurement": "side-effect: akathisia", "setting": "[5]", "result": 9.5, "unit": "%"},
      {"measurement": "side-effect: depression", "setting": "[5]", "result": 15.0, "unit": "%"},
      {"measurement": "side-effect: drowsiness", "setting": "[5]", "result": 36.5, "unit": "%"},
      {"measurement": "side-effect: insomnia", "setting": "[5]", "result": 11.0, "unit": "%"},
      {"measurement": "side-effect: nervousness or anxiety", "setting": "[5]", "result": 10.3, "unit": "%"},
      {"measurement": "side-effect: parkinsonism", "setting": "[5]", "result": 28.5, "unit": "%"}
    ]},
    {"smiles": "COc1cc2c(cc1OC)[C@H]1CC(=O)[C@H](CC(C)C)CN1CC2", "note": "[Form 2 crystalline (+)-TBZ, (3R,11bR)-tetrabenazine]", "values": [
      {"measurement": "solubility", "setting": "[2]", "result": 61.032, "unit": "µg/mL"},
      {"measurement": "(+)-DHTBZ concentration in RLM", "setting": "[3]; 0 min", "result": 0, "unit": "ng/mL"},
      {"measurement": "(+)-TBZ concentration in RLM", "setting": "[3]; 0 min", "result": 2056, "unit": "ng/mL"},
      {"measurement": "(−)-DHTBZ concentration in RLM", "setting": "[3]; 0 min", "result": 0, "unit": "ng/mL"},
      {"measurement": "(−)-TBZ concentration in RLM", "setting": "[3]; 0 min", "result": 0, "unit": "ng/mL"},
      {"measurement": "(+)-DHTBZ concentration in RLM", "setting": "[3]; 15 min", "result": 455, "unit": "ng/mL"},
      {"measurement": "(+)-TBZ concentration in RLM", "setting": "[3]; 15 min", "result": 881, "unit": "ng/mL"},
      {"measurement": "(−)-DHTBZ concentration in RLM", "setting": "[3]; 15 min", "result": 0, "unit": "ng/mL"},
      {"measurement": "(−)-TBZ concentration in RLM", "setting": "[3]; 15 min", "result": 0, "unit": "ng/mL"},
      {"measurement": "(+)-DHTBZ concentration in RLM", "setting": "[3]; 30 min", "result": 608, "unit": "ng/mL"},
      {"measurement": "(+)-TBZ concentration in RLM", "setting": "[3]; 30 min", "result": 366, "unit": "ng/mL"},
      {"measurement": "(−)-DHTBZ concentration in RLM", "setting": "[3]; 30 min", "result": 0, "unit": "ng/mL"},
      {"measurement": "(−)-TBZ concentration in RLM", "setting": "[3]; 30 min", "result": 0, "unit": "ng/mL"},
      {"measurement": "(+)-DHTBZ concentration in RLM", "setting": "[3]; 45 min", "result": 616, "unit": "ng/mL"},
      {"measurement": "(+)-TBZ concentration in RLM", "setting": "[3]; 45 min", "result": 122, "unit": "ng/mL"},
      {"measurement": "(−)-DHTBZ concentration in RLM", "setting": "[3]; 45 min", "result": 0, "unit": "ng/mL"},
      {"measurement": "(−)-TBZ concentration in RLM", "setting": "[3]; 45 min", "result": 0, "unit": "ng/mL"},
      {"measurement": "(+)-DHTBZ concentration in RLM", "setting": "[3]; 60 min", "result": 627, "unit": "ng/mL"},
      {"measurement": "(+)-TBZ concentration in RLM", "setting": "[3]; 60 min", "result": 42, "unit": "ng/mL"},
      {"measurement": "(−)-DHTBZ concentration in RLM", "setting": "[3]; 60 min", "result": 0, "unit": "ng/mL"},
      {"measurement": "(−)-TBZ concentration in RLM", "setting": "[3]; 60 min", "result": 0, "unit": "ng/mL"},
      {"measurement": "amounts of therapeutically active VMAT2 inhibitors, (+)-TBZ and (+)-DHTBZ, generated in RLM versus racemate TBZ", "setting": "[3]; rat liver microsome", "result": "comparable amounts"},
      {"measurement": "half-life", "setting": "[3]; rat liver microsome", "result": 10.6, "unit": "min"},
      {"measurement": "Response Angle", "setting": "[6]; D50 15 μm", "result": "45.3 ± 5.0", "unit": "°"},
      {"measurement": "Response Angle", "setting": "[6]; D50 35 μm", "result": "43.3 ± 2.5", "unit": "°"},
      {"measurement": "Response Angle", "setting": "[6]; D50 50 μm", "result": "36.7 ± 7.6", "unit": "°"},
      {"measurement": "Response Angle", "setting": "[6]; D50 80 μm, more symmetric crystals", "result": "34.7 ± 1.2", "unit": "°"},
      {"measurement": "Response Angle", "setting": "[6]; D50 80 μm, more symmetric crystals, listed as more symmetric crystalline (+)-TBZ", "result": "about 35 °"},
      {"measurement": "Response Angle", "setting": "[6]; D50 125 μm", "result": "35.3 ± 2.3", "unit": "°"},
      {"measurement": "Response Angle", "setting": "[6]; Rod shape (80 μm)", "result": "64.3 ± 1.2", "unit": "°"},
      {"measurement": "Response Angle", "setting": "[6]; Rod shape (80 μm), listed as rod-shaped crystalline (+)-TBZ", "result": "about 64 °"}
    ]}
  ]
}
